{"source": "patent US9121846B2", "about": "“Daikenchuto bioassay method and quality management method using same” (TSUMURA & Co., priority 2010, dated 2015)", "test_system": "Rat pancreatic cancer cell line RIN-14B", "experiment": "Serotonin (5-HT) release test in cultured serotonin-producing cells, 5-HT measured by EIA", "format": "cell-based", "settings": "positive control, final concentration 100 μmol/L, 1 hour culture", "procedure": "The crude drug mixture of the proportions presented in Table 1 was extracted by heating at 100° C. for 1 hour with purified water used in 10 times the amount of the mixture weight, and the extract was processed into a powder to obtain a Koi-free Daikenchuto extract powder. The Koi-free Daikenchuto extract powder was used to prepare a 100 mg/mL DMSO suspension, and the suspension was mixed with an 88.8 mg/mL maltose aqueous solution at a 1:9 ratio to prepare a […] Daikenchuto solution. The solution was diluted with 0.1% BSA-Hanks buffer* to make the concentration 9 mg/mL and subjected to 15-min sonication to prepare a Daikenchuto test sample.\nSeparately, a DMSO solution of 100 mmol/L AITC was prepared as a positive control sample by adding allyl isothiocyanate (AITC; Wako Pure Chemical Industries, Ltd.) to DMSO. […]\nThe plate was washed three times with a washing buffer attached to the kit (300 μL/well) to remove the free components. […] After confirming the development of color, the reaction was stopped by adding a reaction stopper ([…] and the absorbance at 405 nm was measured. The results are presented in FIG. 1."}
{"smiles": "C=CCN=C=S", "note": "[AITC, allyl isothiocyanate]", "values": [{"measurement": "5-HT concentration compared with the control", "value": "evidently higher"}]}
